Test results published in US9023407B2, “Plant extract for treating diabetes and process for making same” (Development Center for Biotechnology, priority 2012, dated 2015).
Marks after values point to notes of the source that are not given here.

How the values were obtained:
[1] = system: Sprague-Dawley rats with type I diabetes; test: Insulin resistance test in rats with type I diabetes; type: in vivo, rat; conditions: 0.3 U/kg insulin subcutaneous
Experimental: Eighteen (18) Sprague-Dawley rats with type I diabetes were divided into three groups: the control group (6 rats, to be administered with 10% Tween 20), the insulin group (6 rats, to be subcutaneously administered with 0.3 U/kg insulin) and the insulin plus HC group (6 rats, to be subcutaneously administered with 0.3 U/kg insulin and orally administered with 1.0 g/kg of ethanol extract of leaves and pseudostems of Hedychium coronarium Koening ). The rats were fasted for 4 hours and then administered with 10% Tween 20 (the control group), 0.3 U/kg insulin (the insulin group) or 0.3 U/kg insulin plus 1.0 g/Kg of ethanol extract of leaves and pseudostems of Hedychium coronarium Koening (the insulin plus HC group). After administration of 2.5 g/kg glucose, blood was drawn from each animal at 30-minute intervals for the measurement of glucose (mg/DL).

Sprague-Dawley rats = test: Glucose tolerance test in normal rats; type: in vivo, rat; conditions: 10 mg/kg
Experimental: Twenty-six (26) Sprague-Dawley rats were divided into four groups: the placebo group (7 rats, to be administered with 10% Tween 20), the positive control group (7 rats, to be administered with glibenclamide), the 250 mg/kg HC group (6 rats, to be administered with 250 mg/kg ethanol extract of leaves and pseudostems of Hedychium coronarium Koening ), and the 750 mg/kg HC group (6 rats, to be administered with 750 mg/kg ethanol extract of the leaves and pseudostems of Hedychium coronarium Koening ). The rats were fasted for 7 hours and then administered with 250 mg/kg ethanol extract of leaves and pseudostems of Hedychium coronarium Koening (the 250 mg/kg HC group), 750 mg/kg ethanol extract of leaves and pseudostems of Hedychium coronarium Koening (the 750 mg/kg HC group), 10 mg/kg glibenclamide (the positive control group), or 10% Tween 20 (the placebo/control group). After 30 minutes, each rat was administered with glucose at a total amount of 5 g/kg, orally (2.5 g/kg) and subcutaneously (2.5 g/kg). Blood was drawn from each rat at the intervals of 0, 30, 60, 90 and 120 minutes for the measurement of glucose (mg/DL). […]
The test rats and procedure were as those in Example 1. However, in this example, 24 Sprague-Dawley rats were divided into four groups: the placebo group (6 rats, to be administered with water), the positive control group (6 rats, to be administered with 10 mg/kg glibenclamide), the 0.4 g/kg HC group (6 rats, to be administered with 0.4 g/kg water-ethanol extract of leaves and pseudostems of Hedychium coronarium Koening ), and the 0.8 g/kg HC group (6 rats, to be administered with 0.8 g/kg water-ethanol extract of leaves and pseudostems of Hedychium coronarium Koening ). After 30 minutes, each rat was administered with glucose at a total amount of 5 g/kg, orally (2.5 g/kg) and subcutaneously (2.5 g/kg). Blood was drawn from each animal at 30-minute intervals for the measurement of glucose (mg/DL). […]

Row | Molecule | Concentration of blood glucose ([1]; 0 min) [mg/dL] | Concentration of blood glucose ([1]; 30 min) | Concentration of blood glucose ([1]; 60 min) | Concentration of blood glucose ([1]; 90 min) | Concentration of blood glucose (Sprague-Dawley rats; Example 1, 0 min) [mg/dL] | Concentration of blood glucose (Sprague-Dawley rats; Example 1, 30 min) | Concentration of blood glucose (Sprague-Dawley rats; Example 1, 60 min) | Concentration of blood glucose (Sprague-Dawley rats; Example 1, 90 min) | Concentration of blood glucose (Sprague-Dawley rats; Example 1, 120 min) | Concentration of blood glucose (Sprague-Dawley rats; Example 9, 0 min) [mg/dL] | Concentration of blood glucose (Sprague-Dawley rats; Example 9, 30 min) | Concentration of blood glucose (Sprague-Dawley rats; Example 9, 60 min) | Concentration of blood glucose (Sprague-Dawley rats; Example 9, 90 min) | Concentration of blood glucose (Sprague-Dawley rats; Example 9, 120 min)
1 | Insulin: insulin, subcutaneously administered at 0.3 U/kg | 522.5 ± 27.1 | 695.8 +/− 18.7** mg/DL | 593.3 +/− 16.2* mg/DL | 486.2 +/− 9.6* mg/DL |  |  |  |  |  |  |  |  |  | 
2 | COc1ccc(Cl)cc1C(=O)NCCc1ccc(S(=O)(=O)NC(=O)NC2CCCCC2)cc1 [Glibenclamide, glibenclamide] |  |  |  |  | 99 ± 2.7 | 150.7 +/− 15.2** mg/DL | 121.4 +/− 10.2** mg/DL | 101.6 +/− 6.7** mg/DL | 83.4 +/− 2.5*** mg/DL | 94.3 ± 3.8 | 173.8 +/− 14.5*** mg/DL | 101.8 +/− 8.4*** mg/DL | 82.7 +/− 8.1*** mg/DL | 68.8 +/− 5.9*** mg/DL
